From patent US7288567B2, “Inhibitors of histone deacetylase” (Methylgene Inc., priority 2000, dated 2007)
Where two headings read alike, the source gives them in different places.

Legend:
[1] = molecular target: T1, recombinant human HDAC-1 enzyme (rHDAC-1) (Homo sapiens, UniProt Q13547); experiment: Histone deacetylase inhibition, recombinant human HDAC-1; format: biochemical; details: cloned recombinant human HDAC-1, Baculovirus insect cell expression; read-out: rHDAC-1 IC50
T1 construct: made in house; host or cells: Baculovirus insect cell expression system
T1 sequence (Q13547 whole entry): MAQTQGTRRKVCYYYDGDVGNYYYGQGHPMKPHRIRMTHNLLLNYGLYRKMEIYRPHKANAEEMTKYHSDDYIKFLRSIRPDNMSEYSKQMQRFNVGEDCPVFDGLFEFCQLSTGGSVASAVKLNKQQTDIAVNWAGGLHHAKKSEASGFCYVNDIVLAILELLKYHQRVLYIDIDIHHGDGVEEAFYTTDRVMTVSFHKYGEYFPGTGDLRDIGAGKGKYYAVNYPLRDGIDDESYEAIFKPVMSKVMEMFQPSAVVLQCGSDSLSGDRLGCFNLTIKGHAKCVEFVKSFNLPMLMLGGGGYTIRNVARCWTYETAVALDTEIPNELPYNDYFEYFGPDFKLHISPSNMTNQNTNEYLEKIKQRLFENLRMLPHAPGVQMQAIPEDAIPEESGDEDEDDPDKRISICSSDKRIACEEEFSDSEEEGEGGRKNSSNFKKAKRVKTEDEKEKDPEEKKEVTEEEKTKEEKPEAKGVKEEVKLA
How it was run: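 Recombinant human HDAC-1 or pooled HDACs from H446 nuclear extracts were preincubated with compounds for 30 min at 4 °C before the reaction. Released [3H]-acetic acid was extracted with ethyl acetate after acid stop and counted by scintillation. IC50 was the concentration giving half-maximal inhibition from dose-response curves.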

[2] = tested on: acetylated histone H-4 in T24 human bladder cancer cells; experiment: Histone H4 acetylation in whole cells by immunoblots; format: cell-based
Protocol: T24 human bladder cancer cells growing in culture were incubated with HDAC inhibitors for 16 hours. Histones were extracted from the cells after the culture period as described by M. Yoshida et al. (J. Biol. Chem. 265(28): 17174-17179 (1990)). 20 μg of total histone protein was loaded onto SDS/PAGE and transferred to nitrocellulose membranes. Membranes were probed with polyclonal antibodies specific for acetylated histone H-4 (Upstate Biotech Inc.), followed by horse radish peroxidase conjugated secondary antibodies (Sigma). Enhanced Chemiluminescence (ECL) (Amersham) detection was performed using Kodak films (Eastman Kodak). Acetylated H-4 signal was quantified by densitometry.

[3] = tested on: histone deacetylase enzyme in nuclear extracts from H446 cells (pooled HDACs); experiment: Histone deacetylase inhibition, H446 nuclear extracts (pooled HDACs); format: biochemical, human; details: for IC50: H446 nuclear extract, [3H]-acetylated histone substrate; for pooled HDACs percent inhibition: percent inhibition at 20 μM (footnote)
Protocol: HDAC inhibitors were screened against histone deacetylase enzyme in nuclear extracts prepared from the human small cell lung cancer cell line H446 (ATTC HTB-171) and against a cloned recombinant human HDAC-1 enzyme expressed and purified from a Baculovirus insect cell expression system.
For deacetylase assays, 20,000 cpm of the [^3H]-metabolically labeled acetylated histone substrate (M. Yoshida et al., J. Biol. Chem. 265(28): 17174-17179 (1990)) was incubated with 30 μg of H446 nuclear extract or an equivalent amount of the cloned recombinant hHDAC-1 for 10 minutes at 37° C. The reaction was stopped by adding acetic acid (0.04 M, final concentration) and HCl (250 mM, final concentration). The mixture was extracted with ethyl acetate and the released [^3H]-acetic acid was quantified by scintillation counting. For inhibition studies, the enzyme was preincubated with compounds at 4° C. for 30 minutes prior to initiation of the enzymatic assay. IC50 values for HDAC enzyme inhibitors were determined by performing dose response curves with individual compounds and determining the concentration of inhibitor producing fifty percent of the maximal inhibition.

rat fibroblasts = details: Yoshida and Beppu 1988; cited from earlier work
cell growth = details: Finnin et al. 1999; cited from earlier work
tumors = details: Finnin et al. 1999; cited from earlier work
HDAC = details: Richon et al. 1998; cited from earlier work
[4] = tested on: A549 human lung carcinoma cells; experiment: Antineoplastic effect on A549 tumors in nude mice; format: in vivo, BALB/c nude mice; details: A549 xenograft, daily injection about 10 to about 50 mg/kg, 21 days
Protocol: Eight to ten week old female BALB/c nude mice (Taconic Labs, Great Barrington, N.Y.) were injected subcutaneously in the flank area with 2×10^6 preconditioned A549 human lung carcinoma cells. Preconditioning of these cells was accomplished by a minimum of three consecutive tumor transplantations in the same strain of nude mice. Subsequently, tumor fragments of approximately 30 mgs were excised and implanted subcutaneously in mice, in the left flank area, under isoflurane anesthesia (Abbott Labs, Geneva, Switzerland). When the tumors reached a mean volume of 100 mm^3, the mice were treated intravenously, subcutaneously or intraperitoneally, by daily injection of a solution of the inhibitor in an appropriate vehicle such as PBS, DMSO/water, or Tween 80/water, at a dose from about 10 mg/kg to about 50 mg/kg, for 21 days. Tumor volume was calculated every second day post infusion according to standard methods (e.g., Meyer et al., Int. J. Cancer 43: 851-856 (1989)).

[5] = T-24, read-out: EC50, concentration effective for reducing the acetylated H-4 signal by 50%, T24 cells, 16 hours incubation, immunoblot densitometry

COc1ccc(C(C/C=C/C=C/C(=O)Nc2ccccc2N)OC)cc1 (centres unmarked) [Compound 18, N-(2-Aminophenyl)-7-methoxy-7-(4-methoxyphenyl)-2,4-heptadienamide]
IC50 [1]: 1 µM | EC50 [2, 5]: 10 µM | IC50 [3]: > 100 µM

Nc1ccccc1NC(=O)/C=C/C=C/CCC(=O)c1ccc(-c2ccccc2)cc1 [Compound 204, (E,E)-N-(2-Aminophenyl)-7-[(4-biphenyl)carbonyl]-2,4-heptadienamide]
IC50 [1]: 5 µM | EC50 [2, 5]: 15 µM

O=C(CCCCCCC(=O)c1ccc(N2CCN(c3ccccc3)CC2)cc1)NO [Compound 138g, N-Hydroxy-7-[4-(1-(4-phenylpiperazinyl))benzoyl]heptanamide]
IC50 [1]: 0.006 µM | EC50 [2, 5]: 5 µM | IC50 [3]: 0.051 µM

O=C(CCCCCCC(=O)c1ccc(-c2ccccc2)nc1)NO [Compound 145, N-Hydroxy-7-[(5-(2-phenyl)pyridyl)carbonyl]heptanamide]
IC50 [1]: 0.008 µM | EC50 [2, 5]: 10 µM

CC(/C=C/C(=O)Nc1ccccc1N)=C\C(C)Cc1ccc(N(C)C)cc1 (centres unmarked) [Compound 39]
IC50 [1]: 7 µM | EC50 [2, 5]: 10 µM | IC50 [3]: > 20 µM

CC(/C=C/C(=O)NO)=C\[C@@H](C)C(=O)c1ccc(N(C)C)cc1 [TSA, trichostatin A]
cell cycle arrest (rat fibroblasts): causes arrest of rat fibroblasts at the G1 and G2 phases of the cell cycle | cell growth (cell growth): inhibit cell growth | terminal differentiation (cell growth): induce terminal differentiation | formation of tumors in mice (tumors): prevent the formation of tumors in mice | HDAC activity (HDAC): inhibited

Nc1ccccc1NC(=O)CCCCCCC(=O)c1ccc(-c2ccccc2)cc1 [Compound 77, N-(2-Aminophenyl)-7-[(4-biphenyl)carbonyl]heptanamide]
IC50 [1]: 1.9 µM | EC50 [2, 5]: 10 µM | pooled HDACs percent inhibition [3]: 11%

CC(/C=C/C(=O)Nc1ccccc1N)=C\C(C)C(=O)c1ccc(N(C)C)cc1 (centres unmarked) [Compound 35, N-(2-Aminophenyl)-4-methyl-6-[4-(N,N-dimethylamino)benzoyl]-2,4-heptadienamide]
IC50 [1]: 2 µM | EC50 [2, 5]: 5 µM | IC50 [3]: > 100 µM

Nc1ccccc1NC(=O)CCCCCCC(=O)c1ccc(-c2ccccc2)nc1 [Compound 146, N-(2-Aminophenyl)-7-[(5-(2-phenyl)pyridyl)carbonyl]heptanamide]
IC50 [1]: 2 µM | EC50 [2, 5]: 5 µM

O=C(CCCCCCOc1ccc(-c2ccccc2)cc1)NO [Compound 235, N-Hydroxy-7-(4-biphenyloxy)heptanamide]
EC50 ([2]; T-24, 16 h, read-out: EC50, concentration effective for reducing the acetylated H-4 signal by 50%): 5 µM

COC(C/C=C/C=C/C(=O)Nc1ccccc1N)c1ccc(N(C)C)cc1 (centres unmarked) [Compound 20, N-(2-Aminophenyl)-7-methoxy-7-[4-(N,N-dimethylamino)phenyl]-2,4-heptadienamide]
IC50 [1]: 3 µM | EC50 [2, 5]: 5 µM | IC50 [3]: > 20 µM

O=C(CCCCCCC(=O)Nc1ccccc1)NO [SAHA, suberoylanilide hydroxamic acid]
cell growth (cell growth): inhibit cell growth | terminal differentiation (cell growth): induce terminal differentiation | formation of tumors in mice (tumors): prevent the formation of tumors in mice | HDAC activity (HDAC): inhibited

Nc1ccccc1NC(=O)CCCCCN1C(=O)c2cccc3c(CN4CCCCC4)c(O)cc(c23)C1=O [Compound 251c, N-(2-Aminophenyl)-6-[2-(5-hydroxy-1,3-dioxo-6-(1-methylpiperidynyl)-1H,3H-benzo[de]isoquinolinyl)]-hexanamide]
IC50 [1]: 2 µM | EC50 [2, 5]: 1 µM

Nc1ccccc1NC(=O)CCCCCCC(=NO)c1cccc(-c2ccccc2)c1 (mixture of isomers) [Compound 134, N-(2-Aminophenyl)-8-(E)-oximino-8-(3-biphenyl)octanamide]
IC50 [1]: 1 µM | EC50 [2, 5]: 10 µM

COC(c1ccc(N(C)C)cc1)C(C)/C=C(C)/C=C/C(=O)Nc1ccccc1N (centres unmarked) [Compound 34, N-(2-Aminophenyl)-4,6-dimethyl-7-methoxy-7-[4-(N,N-dimethylamino)phenyl]-2,4-heptadienamide]
IC50 [1]: 7 µM | EC50 [2, 5]: 5 µM | IC50 [3]: > 100 µM | tumor weight and volume relative to saline controls [4]: significant reduction in tumor weight and volume

COc1ccc(-c2ccc(C(=O)CCCCCCC(=O)NO)cc2)cc1 [Compound 120, N-Hydroxy-7-[4-(4-methoxyphenyl)benzoyl]heptanamide]
IC50 [1]: 0.002 µM | EC50 [2, 5]: 10 µM | pooled HDACs percent inhibition [3]: 83%

COc1ccc(-c2ccc(C(=O)CCCCCCC(=O)Nc3ccccc3N)cn2)cc1OC [Compound 151, N-(2-Aminophenyl)-7-[5-(2-(3,4-dimethoxyphenyl)pyridyl)carbonyl]heptanamide]
IC50 [1]: 4 µM | EC50 [2, 5]: 3 µM

O=C(/C=C/C=C/CCC(=O)c1ccc(-c2ccccc2)cc1)NO [Compound 205, (E,E)-N-Hydroxy-7-[(4-biphenyl)carbonyl]-2,4-heptadienamide]
IC50 [1]: 0.04 µM | EC50 [2, 5]: 3 µM

Cc1ccc2c(c1)C(=O)N(CCCCCC(=O)Nc1ccccc1N)C2=O [Compound 243d, N-(2-Aminophenyl)-6-(5-methyl-N-phthaloyl)hexanamide]
IC50 [1]: 3 µM | EC50 [2, 5]: 3 µM

O=C(NCCCCCCC(=O)c1ccccc1)Nc1ccccc1O [Compound 253]
IC50 [1]: > 20 µM | pooled HDACs percent inhibition [3]: 0%
